Experimental data: patent publication US20250115597A1, “TYK2 INHIBITORS AND COMPOSITIONS AND METHODS THEREOF” (LYNK PHARMACEUTICALS CO. LTD., priority 2021, published 2025)

Legend:
[1] = Plasma protein binding by equilibrium dialysis; format: in vitro ADME; settings: human plasma, equilibrium dialysis 5 hours at 37° C.; read-out: % Bound (human) (converted)
Summary of the method: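 Compound spiked into plasma at 0.2 and 2 μM was dialyzed against PBS for 5 h at 37° C with shaking, in duplicate. Plasma and buffer chambers were matrix-matched, protein-precipitated and analysed by LC-MS/MS to derive % unbound, % bound and % recovery.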

[2] = Hepatocytes metabolic stability assay; format: in vitro ADME; settings: cryopreserved hepatocytes, human hepatocytes, 1.0×10^6 cells/mL; for CLint scaled at 1 μM: read-out: Human hepatocyte Clint(liver); for half-life at 1 μM: read-out: Human hepatocyte stability T1/2
Summary of the method: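 Cryopreserved hepatocytes (1.0×10^6 cells/mL final) were incubated with test compound at 1 μM at 37 °C and sampled at 0, 15, 30, 60 and 120 min, with acetonitrile quench and LC-MS/MS. k came from log-linear % remaining versus time, giving T1/2 and CLint.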

JAK1 = target: T1, JAK1 (Homo sapiens, UniProt P23458); experiment: JAK1 kinase activity, microfluidic assay (Caliper EZ Reader II); format: biochemical; settings: JAK1 5 nM, 1 mM ATP
T1 construct: purchased Carna Biosciences
Summary of the method: (§1)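 Human JAK1, JAK2 or TYK2 enzyme was used in 50 mM HEPES, 10 mM MgCl2, 2 mM DTT and 0.01% Brij35, tuned to 10% conversion of a FAM-labelled peptide. Threefold dilutions of compound (top 5 µM, 1% DMSO) were pre-incubated with enzyme for 10 min, and reactions were stopped with EDTA. Phosphorylation was read by microfluidic mobility shift, and IC50 came from percent-inhibition curves.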

TYK2 = target: T2, TYK2 (Homo sapiens, UniProt P29597); experiment: TYK2 kinase activity, microfluidic assay (Caliper EZ Reader II); format: biochemical; settings: TYK2 1 nM, 1 mM ATP
T2 construct: purchased Carna Biosciences
Summary of the method: as §1

JAK2 = target: T3, JAK2 (Homo sapiens, UniProt O60674); experiment: JAK2 kinase activity, microfluidic assay (Caliper EZ Reader II); format: biochemical; settings: JAK2 0.125 nM, 1 mM ATP
T3 construct: purchased Carna Biosciences
Summary of the method: as §1

pSTAT1 = experiment: Phosphorylation inhibition of STAT in human PBMC, IFN-alpha stimulated (flow cytometry); format: cell-based; settings: 20 min; human PBMC, IFN-alpha 20 mins, CD3 cells; read-out: IC50 on pSTAT1 inhibition in hPBMC
Protocol: Phosphorylation Inhibition of STAT in Human PBMC and Human Whole Blood Testing:
The inhibitory potential of test articles in human PBMC and human whole blood assay was evaluated by the method of flow cytometry.
IFN-alpha will activate JAK1 and TYK2 kinase in T cells by binding to IFN receptors, and then lead to phosphorylation of STAT1 and STAT2. The phosphorylated STAT1 enter nuclear and promote transcription and expression of IFN-gamma. To evaluate the efficacy of TYK2i in T cells, freshly prepared human PBMC or freshly collected human whole blood will be stimulated with certain unit of human IFN-alpha (Universal Type I IFN(1MU), R&D, 11200-2) for 20 mins in incubator. After stimulation, fix cells with Phosflow™ Fix Buffer I (BD, 557870), and then collect fixed cells by centrifugation (500 g, 8 min). Wash cells once with pre-cooled PBS, and then permeabilize cells with cold Perm Buffer III buffer (BD, 558050) for 45 mins on ice. Collect cells by centrifugation (600 g, 8 min) and washed twice with cold PBS. Stain cells with anti-human CD3 (FITC Mouse Anti-Human CD3, BD, 555332) and anti-pSTAT1_Y701(Alexa Fluor 647 Mouse Anti-Stat1 (pY701), BD, 612597) antibodies. Detect pSTAT1 by flow cytometry (CytoFlex S) and analyze data with FlowJo and GraphPad Prism 8 software. IC50 values of test articles were determined using 4-parameter logistic equation.

T2 sequence (P29597 whole entry): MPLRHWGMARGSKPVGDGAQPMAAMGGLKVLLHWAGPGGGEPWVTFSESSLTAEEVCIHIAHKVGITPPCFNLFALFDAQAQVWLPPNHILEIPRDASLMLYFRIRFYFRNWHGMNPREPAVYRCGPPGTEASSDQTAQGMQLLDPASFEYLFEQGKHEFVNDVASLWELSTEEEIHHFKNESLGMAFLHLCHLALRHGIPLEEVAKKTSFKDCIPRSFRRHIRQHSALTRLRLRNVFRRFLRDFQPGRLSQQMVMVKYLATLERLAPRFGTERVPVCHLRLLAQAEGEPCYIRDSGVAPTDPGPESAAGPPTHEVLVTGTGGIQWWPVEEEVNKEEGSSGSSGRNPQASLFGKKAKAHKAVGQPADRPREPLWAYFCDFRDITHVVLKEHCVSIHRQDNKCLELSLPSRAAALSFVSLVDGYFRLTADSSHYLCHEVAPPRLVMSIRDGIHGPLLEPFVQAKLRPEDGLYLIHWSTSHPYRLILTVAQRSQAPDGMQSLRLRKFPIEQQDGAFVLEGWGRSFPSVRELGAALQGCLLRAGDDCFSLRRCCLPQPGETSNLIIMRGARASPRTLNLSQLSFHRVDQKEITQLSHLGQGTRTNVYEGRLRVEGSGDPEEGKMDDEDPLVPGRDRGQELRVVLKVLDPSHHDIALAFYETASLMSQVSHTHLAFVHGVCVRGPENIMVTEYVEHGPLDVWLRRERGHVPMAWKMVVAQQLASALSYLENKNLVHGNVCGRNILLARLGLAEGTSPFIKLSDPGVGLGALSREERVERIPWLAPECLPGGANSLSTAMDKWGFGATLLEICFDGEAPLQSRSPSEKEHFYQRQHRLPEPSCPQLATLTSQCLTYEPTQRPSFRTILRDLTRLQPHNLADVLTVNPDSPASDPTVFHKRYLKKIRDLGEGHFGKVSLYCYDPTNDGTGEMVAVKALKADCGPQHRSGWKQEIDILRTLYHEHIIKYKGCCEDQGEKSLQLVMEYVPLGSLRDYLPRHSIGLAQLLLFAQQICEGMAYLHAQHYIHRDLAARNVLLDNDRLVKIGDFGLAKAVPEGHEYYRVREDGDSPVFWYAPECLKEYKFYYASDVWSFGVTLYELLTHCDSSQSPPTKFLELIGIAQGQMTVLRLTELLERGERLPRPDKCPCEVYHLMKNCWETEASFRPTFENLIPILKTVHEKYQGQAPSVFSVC
T3 sequence (O60674 whole entry): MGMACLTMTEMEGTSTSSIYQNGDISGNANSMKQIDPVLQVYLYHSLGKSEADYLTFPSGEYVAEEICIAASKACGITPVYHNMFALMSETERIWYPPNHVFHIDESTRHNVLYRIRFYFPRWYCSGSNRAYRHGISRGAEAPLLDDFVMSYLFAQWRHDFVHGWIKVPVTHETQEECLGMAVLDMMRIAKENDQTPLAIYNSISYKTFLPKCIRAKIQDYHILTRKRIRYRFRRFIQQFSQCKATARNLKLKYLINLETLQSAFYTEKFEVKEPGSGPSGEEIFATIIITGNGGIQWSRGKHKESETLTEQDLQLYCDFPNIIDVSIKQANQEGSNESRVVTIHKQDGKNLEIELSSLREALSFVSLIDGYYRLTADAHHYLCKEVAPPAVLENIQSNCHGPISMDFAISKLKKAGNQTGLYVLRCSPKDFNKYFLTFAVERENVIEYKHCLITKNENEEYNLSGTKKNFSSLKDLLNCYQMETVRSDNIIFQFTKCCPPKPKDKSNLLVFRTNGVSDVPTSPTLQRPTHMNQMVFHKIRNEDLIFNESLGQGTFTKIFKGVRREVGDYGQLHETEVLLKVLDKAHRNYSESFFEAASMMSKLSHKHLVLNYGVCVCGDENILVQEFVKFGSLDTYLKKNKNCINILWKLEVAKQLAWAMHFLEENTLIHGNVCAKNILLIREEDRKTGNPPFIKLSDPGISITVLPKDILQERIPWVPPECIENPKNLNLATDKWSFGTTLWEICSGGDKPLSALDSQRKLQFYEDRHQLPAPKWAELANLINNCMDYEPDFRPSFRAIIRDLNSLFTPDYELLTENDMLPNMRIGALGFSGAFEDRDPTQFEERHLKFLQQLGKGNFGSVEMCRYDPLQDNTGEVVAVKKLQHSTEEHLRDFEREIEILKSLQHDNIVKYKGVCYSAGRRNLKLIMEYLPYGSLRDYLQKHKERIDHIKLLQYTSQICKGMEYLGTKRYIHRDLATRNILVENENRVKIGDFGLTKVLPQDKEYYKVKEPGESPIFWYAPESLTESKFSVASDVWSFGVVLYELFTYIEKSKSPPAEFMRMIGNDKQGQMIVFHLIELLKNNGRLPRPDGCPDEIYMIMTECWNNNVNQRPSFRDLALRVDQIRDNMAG
T1 sequence (P23458 whole entry): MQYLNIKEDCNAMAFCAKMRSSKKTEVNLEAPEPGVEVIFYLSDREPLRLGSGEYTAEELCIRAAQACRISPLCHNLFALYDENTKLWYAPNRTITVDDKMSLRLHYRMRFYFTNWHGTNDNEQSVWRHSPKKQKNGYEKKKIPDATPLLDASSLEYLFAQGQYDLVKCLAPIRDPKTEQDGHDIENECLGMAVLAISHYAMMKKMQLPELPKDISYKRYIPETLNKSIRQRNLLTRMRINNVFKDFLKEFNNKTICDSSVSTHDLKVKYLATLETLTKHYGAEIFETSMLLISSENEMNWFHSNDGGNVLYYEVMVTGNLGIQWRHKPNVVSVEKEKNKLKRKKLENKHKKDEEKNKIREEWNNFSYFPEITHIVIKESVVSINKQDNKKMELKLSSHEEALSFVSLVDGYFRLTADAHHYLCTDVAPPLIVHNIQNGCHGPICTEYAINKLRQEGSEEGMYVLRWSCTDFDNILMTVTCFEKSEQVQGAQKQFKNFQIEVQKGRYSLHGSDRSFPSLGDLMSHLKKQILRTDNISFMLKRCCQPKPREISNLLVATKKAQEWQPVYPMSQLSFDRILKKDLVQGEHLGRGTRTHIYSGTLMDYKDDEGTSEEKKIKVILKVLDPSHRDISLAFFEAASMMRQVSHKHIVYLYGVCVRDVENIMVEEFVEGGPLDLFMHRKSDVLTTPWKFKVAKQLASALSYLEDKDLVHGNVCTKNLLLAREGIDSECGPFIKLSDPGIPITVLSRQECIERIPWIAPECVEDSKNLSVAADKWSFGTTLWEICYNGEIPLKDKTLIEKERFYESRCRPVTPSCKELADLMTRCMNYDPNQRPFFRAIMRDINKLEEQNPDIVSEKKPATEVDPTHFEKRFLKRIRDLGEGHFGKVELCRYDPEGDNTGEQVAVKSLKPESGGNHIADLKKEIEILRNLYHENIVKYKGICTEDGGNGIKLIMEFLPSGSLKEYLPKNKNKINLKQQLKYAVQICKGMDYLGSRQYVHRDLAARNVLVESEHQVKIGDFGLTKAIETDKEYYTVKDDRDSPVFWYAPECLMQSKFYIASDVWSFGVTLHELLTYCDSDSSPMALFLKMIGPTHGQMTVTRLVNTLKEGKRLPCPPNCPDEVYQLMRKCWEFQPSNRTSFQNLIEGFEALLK

| fraction unbound at 5 h [1] | CLint scaled at 1 μM [2] | half-life at 1 μM [2] | IC50 (JAK1) | IC50 (TYK2) | IC50 (JAK2) | IC50 (pSTAT1) | Structure (SMILES) |
| --- | --- | --- | --- | --- | --- | --- | --- |
| 0.034 | – | – | – | – | – | – | [2H]C([2H])([2H])NC(=O)c1cnc(NC(=O)C2CC2)cc1Nc1ccc2cnn(CC(F)(F)F)c2c1OC [Example 129, 6-(Cyclopropanecarboxamido)-4-((7-methoxy-1-(2,2,2-trifluoroethyl)-1H-indazol-6-yl)amino)-N-(methyl-d3)nicotinamide] |
| 0.107 | < 7.35 mL/min/kg | > 4 h | > 5 µM | > 5 µM | > 5 µM | – | [2H]C([2H])([2H])NC(=O)c1cnc(NC(=O)C2CC2)cc1Nc1ccn2ncc(C#N)c2c1OC [Example 165, 4-((3-Cyano-4-methoxypyrazolo[1,5-a]pyridin-5-yl)amino)-6-(cyclopropanecarboxamido)-N-(methyl-d3)nicotinamide] |
| 0.039 | < 7.35 mL/min/kg | > 4 h | – | – | – | 0.0233 µM | [2H]C([2H])([2H])NC(=O)c1cnc(Nc2ccc(F)cn2)cc1Nc1nn(C)c2ccn(CC)c(=O)c12 [Example 139, 4-((5-Ethyl-1-methyl-4-oxo-4,5-dihydro-1H-pyrazolo[4,3-c]pyridin-3-yl)amino)-6-((5-fluoropyridin-2-yl)amino)-N-(methyl-d3)nicotinamide] |
| 0.068 | 43.1 mL/min/kg | 1.49 h | > 5 µM | > 5 µM | > 5 µM | 0.0149 µM | [2H]C([2H])([2H])NC(=O)c1cnc(NC(=O)C2CC2)cc1Nc1ccc2cnn(CC)c2c1OC [Example 44, 6-(Cyclopropanecarboxamido)-4-((1-ethyl-7-methoxy-1H-indazol-6-yl)amino)-N-(methyl-d3)nicotinamide] |
| 0.124 | 18.5 mL/min/kg | 1.59 h | > 5 µM | > 5 µM | > 5 µM | – | [2H]C([2H])([2H])NC(=O)c1cnc(NC(=O)C2CC2)cc1Nc1ncc2cnn(CC)c2c1OC [Example 262, 6-(Cyclopropanecarboxamido)-4-((1-ethyl-7-methoxy-1H-pyrazolo[4,3-c]pyridin-6-yl)amino)-N-(methyl-d3)nicotinamide] |
